# Measured values as given in patent US10988477B2 (Merck Patent GmbH, priority 2018, dated 2021).
# Read-outs that look alike come from different tables or passages of the source.
# Columns and labels:
# GCN2 kinase = GCN2 kinase (Homo sapiens, UniProt Q9P2K8); assay: GCN2 enzyme inhibition assay (Transcreener ADP2 fluorescence polarization); type: biochemical; conditions: 280 μM ATP
# Method in brief: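 FP detection of ADP (antibody plus Alexa633 tracer) after a 1 h, 25 °C kinase reaction. Enzyme 4 nM, ATP 280 μM, (RS)7 peptide 200 μM, Tris pH 7.5 buffer with MgCl2 and DTT. Percent inhibition fitted by non-linear tight-binding algorithm for IC50 and Ki(app).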
# [1] = molecular target: intracellular GCN2 (phosphorylation of the GCN2 substrate eIF2α) (Homo sapiens, UniProt Q9P2K8); assay: GCN2 cellular inhibition assay (AlphaScreen SureFire P-eIF2α Ser51, borrelidin-treated U2OS cells); type: cell-based
# Method in brief: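 Compound effect on GCN2 is gauged by eIF2α Ser51 phosphorylation in borrelidin-challenged U2OS cells (10 μM, 1 h). Top compound level is 40 μM final.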
# [2] = Enzyme activity for compounds of Formula IV, Ki(app), 25° C.
# [3] = compounds of Formula IV, biomarker assay, phosphorylated eIF2α Ser51 in borrelidin-treated U2OS cells
# [4] = compounds of Formula II, 4 nM GCN2 kinase
# [5] = compounds of Formula II, biomarker assay, phosphorylated eIF2α Ser51 in borrelidin-treated U2OS cells
# Sequence of intracellular GCN2 (phosphorylation of the GCN2 substrate eIF2α) (Q9P2K8 whole entry): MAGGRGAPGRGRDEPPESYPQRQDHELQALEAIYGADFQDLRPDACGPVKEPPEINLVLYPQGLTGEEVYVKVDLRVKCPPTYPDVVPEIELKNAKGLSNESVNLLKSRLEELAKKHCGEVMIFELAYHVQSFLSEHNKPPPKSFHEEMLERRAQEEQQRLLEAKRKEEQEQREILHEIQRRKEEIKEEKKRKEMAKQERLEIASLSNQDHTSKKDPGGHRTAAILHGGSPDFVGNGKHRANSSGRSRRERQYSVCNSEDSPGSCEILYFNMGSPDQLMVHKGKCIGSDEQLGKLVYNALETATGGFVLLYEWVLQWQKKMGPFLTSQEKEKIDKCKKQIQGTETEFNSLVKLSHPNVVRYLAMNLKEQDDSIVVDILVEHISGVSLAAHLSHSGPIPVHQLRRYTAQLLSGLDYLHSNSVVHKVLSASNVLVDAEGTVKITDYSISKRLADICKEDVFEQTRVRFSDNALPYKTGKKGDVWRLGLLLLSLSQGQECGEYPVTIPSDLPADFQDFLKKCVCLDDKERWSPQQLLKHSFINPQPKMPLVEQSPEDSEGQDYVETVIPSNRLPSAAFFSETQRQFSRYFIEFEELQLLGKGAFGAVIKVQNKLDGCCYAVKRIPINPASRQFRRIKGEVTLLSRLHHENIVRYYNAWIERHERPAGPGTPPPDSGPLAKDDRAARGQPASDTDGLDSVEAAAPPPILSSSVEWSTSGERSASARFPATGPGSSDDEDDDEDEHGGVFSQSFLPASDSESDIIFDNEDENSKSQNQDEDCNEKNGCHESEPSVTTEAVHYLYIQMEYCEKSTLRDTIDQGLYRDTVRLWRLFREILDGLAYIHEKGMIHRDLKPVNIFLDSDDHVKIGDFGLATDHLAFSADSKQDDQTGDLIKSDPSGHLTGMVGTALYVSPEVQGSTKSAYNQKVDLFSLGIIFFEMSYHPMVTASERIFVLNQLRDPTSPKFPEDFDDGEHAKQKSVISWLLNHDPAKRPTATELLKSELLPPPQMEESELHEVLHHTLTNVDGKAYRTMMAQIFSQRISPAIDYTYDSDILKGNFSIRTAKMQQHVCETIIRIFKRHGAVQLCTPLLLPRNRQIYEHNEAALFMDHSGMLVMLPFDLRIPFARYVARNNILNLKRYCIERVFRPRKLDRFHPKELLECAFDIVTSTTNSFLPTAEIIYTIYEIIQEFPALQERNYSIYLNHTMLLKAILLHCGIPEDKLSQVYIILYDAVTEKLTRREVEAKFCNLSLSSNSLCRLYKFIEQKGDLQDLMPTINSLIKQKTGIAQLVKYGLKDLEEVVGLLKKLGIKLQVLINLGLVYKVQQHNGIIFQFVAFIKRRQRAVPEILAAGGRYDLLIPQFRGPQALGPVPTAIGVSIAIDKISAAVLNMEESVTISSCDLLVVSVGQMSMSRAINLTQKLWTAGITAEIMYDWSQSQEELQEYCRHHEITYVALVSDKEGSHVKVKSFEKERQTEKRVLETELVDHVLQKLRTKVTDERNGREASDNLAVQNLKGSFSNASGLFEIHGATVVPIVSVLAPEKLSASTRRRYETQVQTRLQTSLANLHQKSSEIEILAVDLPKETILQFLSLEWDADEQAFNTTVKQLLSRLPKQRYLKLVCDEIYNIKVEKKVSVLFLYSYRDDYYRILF
# Sequence of GCN2 kinase (Q9P2K8 whole entry): as above
smiles,measurement,setting,value
"CC1CN(c2ccnc(-c3cnc4cnc(C(F)(F)F)cn34)n2)CC(c2cn[nH]c2Cl)N1 (single isomer, unassigned) [IV-652, 3-[4-[3-(5-Chloro-1H-pyrazol-4-yl)-5-methyl-piperazin-1-yl]pyrimidin-2-yl]-6-(trifluoromethyl)imidazo[1,2-a]pyrazine]",Ki,GCN2 kinase; [2],10 to 100 nM
same,IC50,[1]; [3],500 to 5000 nM
"FC(F)(F)c1cn2c(-c3nccc(N4CCOC(c5cn[nH]c5)C4)n3)cnc2cn1 (single isomer, unassigned) [IV-8, 2-(1H-Pyrazol-4-yl)-4-(2-(6-(trifluoromethyl)imidazo[1,2-a]pyrazin-3-yl)pyrimidin-4-yl)morpholine]",Ki,GCN2 kinase; [2],< 10 nM
same,IC50,[1]; [3],500 to 5000 nM
"CC1CN(c2ccnc(-c3cnc4cnc(C#N)cn34)n2)CC(c2cn[nH]c2)O1 (single isomer, unassigned) [IV-191, 3-(4-(2-Methyl-6-(1H-pyrazol-4-yl)morpholino)pyrimidin-2-yl)imidazo[1,2-a]pyrazine-6-carbonitrile]",Ki,GCN2 kinase; [2],10 to 100 nM
same,IC50,[1]; [3],500 to 5000 nM
"CC1C(CO)OCCN1c1cc(-c2cnc3ccc(C(F)F)nn23)ncn1 (centres unmarked) [II-341, (4-(6-(6-(Difluoromethyl)imidazo[1,2-b]pyridazin-3-yl)pyrimidin-4-yl)-3-methylmorpholin-2-yl)methanol]",Ki,GCN2 kinase; [4],10 to 1000 nM
same,IC50,[1]; [5],> 5000 nM
"Brc1cn2c(-c3nccc(N4CCCC(c5cn[nH]c5)C4)n3)cnc2cn1 (single isomer, unassigned) [IV-360, 3-(4-(3-(1H-Pyrazol-4-yl)piperidin-1-yl)pyrimidin-2-yl)-6-bromoimidazo[1,2-a]pyrazine]",Ki,GCN2 kinase; [2],< 10 nM
same,IC50,[1]; [3],< 500 nM
"C[C@H]1C[C@H](c2c[nH]nc2F)CN(c2nccc(-c3cnc4cnc(C(F)(F)F)cn34)n2)C1 [IV-754, 3-(2-((3R,5S)-3-(3-fluoro-1H-pyrazol-4-yl)-5-methylpiperidin-1-yl)pyrimidin-4-yl)-6-(trifluoromethyl)imidazo[1,2-a]pyrazine]",IC50,"GCN2 kinase; compounds of Formula IV, 4 nM GCN2 kinase",10 to 1000 nM
same,IC50,[1]; [3],< 500 nM
"FC(F)(F)c1cn2c(-c3nccc(N4CCC(c5c[nH]nc5C(F)(F)F)C4)n3)cnc2cn1 (single isomer, unassigned) [IV-628, 6-(Trifluoromethyl)-3-(4-(3-(3-(trifluoromethyl)-1H-pyrazol-4-yl)pyrrolidin-1-yl)pyrimidin-2-yl)imidazo[1,2-a]pyrazine]",Ki,GCN2 kinase; [2],10 to 100 nM
same,IC50,[1]; [3],500 to 5000 nM
"OC[C@H]1CCCN(c2cc(-c3cnc4ccc(C(F)F)nn34)ncn2)C1 [II-519, (S)-(1-(6-(6-(Difluoromethyl)imidazo[1,2-b]pyridazin-3-yl)pyrimidin-4-yl)piperidin-3-yl)methanol]",Ki,GCN2 kinase; [4],10 to 1000 nM
same,IC50,[1]; [5],500 to 5000 nM
"Cc1cc(N2CC(C)NC(c3cn[nH]c3)C2C)nc(-c2cnc3cnc(C(F)(F)F)cn23)n1 (single isomer, unassigned) [IV-669, 3-(4-(2,5-Dimethyl-3-(1H-pyrazol-4-yl)piperazin-1-yl)-6-methylpyrimidin-2-yl)-6-(trifluoromethyl)imidazo[1,2-a]pyrazine]",Ki,GCN2 kinase; [2],100 to 1000 nM
same,IC50,[1]; [3],> 5000 nM
"CC(=O)N1CCN(c2cc(-c3cnc4ccc(-c5cccnc5)nn34)ccn2)CC1 [II-737, 1-(4-(4-(6-(pyridin-3-yl)imidazo[1,2-b]pyridazin-3-yl)pyridin-2-yl)piperazin-1-yl)ethan-1-one]",Ki,GCN2 kinase; [4],> 1000 nM
same,IC50,[1]; [5],> 5000 nM
"FC(F)(F)c1cn2c(-c3nccc(N4CCCC(C5CNC5)C4)n3)cnc2cn1 (centres unmarked) [IV-696, 3-(4-(3-(Azetidin-3-yl)piperidin-1-yl)pyrimidin-2-yl)-6-(trifluoromethyl)imidazo[1,2-a]pyrazine]",Ki,GCN2 kinase; [2],100 to 1000 nM
same,IC50,[1]; [3],> 5000 nM
"CC1CN(c2nccc(-c3cnc4cnc(C(F)(F)F)cn34)n2)C(C)C(c2cn[nH]c2)N1 (single isomer, unassigned) [IV-369, 3-(2-(2,5-Dimethyl-3-(1H-pyrazol-4-yl)piperazin-1-yl)pyrimidin-4-yl)-6-(trifluoromethyl)imidazo[1,2-a]pyrazine]",Ki,GCN2 kinase; [2],< 10 nM
same,IC50,[1]; [3],500 to 5000 nM
"CC(=O)NCC1CCCN(c2cc(-c3cnc4ccc(C(F)F)nn34)ncn2)C1 (centres unmarked) [II-261, N-((1-(6-(6-(Difluoromethyl)imidazo[1,2-b]pyridazin-3-yl)pyrimidin-4-yl)piperidin-3-yl)methyl)acetamide]",Ki,GCN2 kinase; [4],10 to 1000 nM
same,IC50,[1]; [5],500 to 5000 nM
"CC1CN(c2cc(-c3cnc4ccc(C(F)F)nn34)ccn2)CC(CNS(C)(=O)=O)O1 (centres unmarked) [II-119, N-((4-(4-(6-(Difluoromethyl)imidazo[1,2-b]pyridazin-3-yl)pyridin-2-yl)-6-methylmorpholin-2-yl)methyl)methanesulfonamide]",Ki,GCN2 kinase; [4],< 10 nM
same,IC50,[1]; [5],< 500 nM
"CC1CC(CNS(C)(=O)=O)CN(c2cc(-c3cnc4ccc(C(F)F)nn34)ncn2)C1 (centres unmarked) [II-397, N-((1-(6-(6-(Difluoromethyl)imidazo[1,2-b]pyridazin-3-yl)pyrimidin-4-yl)-5-methylpiperidin-3-yl)methyl)methanesulfonamide]",Ki,GCN2 kinase; [4],< 10 nM
same,IC50,[1]; [5],< 500 nM
"FC(F)c1ccc2ncc(-c3ccnc(N4CCOCC4)c3)n2n1 [II-76, 4-(4-(6-(Difluoromethyl)imidazo[1,2-b]pyridazin-3-yl)pyridin-2-yl)morpholine]",Ki,GCN2 kinase; [4],10 to 1000 nM
same,IC50,[1]; [5],> 5000 nM
"CS(=O)(=O)NCC1CN(c2cc(-c3cnc4ccc(C(F)F)nn34)ncn2)CCC1(F)F (single isomer, unassigned) [II-1, N-((1-(6-(6-(Difluoromethyl)imidazo[1,2-b]pyridazin-3-yl)pyrimidin-4-yl)-4,4-difluoropiperidin-3-yl)methyl)methanesulfonamide]",Ki,GCN2 kinase; [4],10 to 1000 nM
same,IC50,[1]; [5],500 to 5000 nM
"CS(=N)(=O)CC1CCCN(c2ccnc(-c3cnc4cnc(C(F)(F)F)cn34)n2)C1 (centres unmarked) [IV-34, Imino(methyl)((1-(2-(6-(trifluoromethyl)imidazo[1,2-a]pyrazin-3-yl)pyrimidin-4-yl)piperidin-3-yl)methyl)-λ^6-sulfanone]",Ki,GCN2 kinase; [2],100 to 1000 nM
same,IC50,[1]; [3],> 5000 nM
"CCN1CCN(c2ccnc(-c3cnc4cnc(Br)cn34)n2)[C@@H](c2cn[nH]c2)[C@H]1C (relative stereo) [IV-391, Cis-6-Bromo-3-(4-(4-ethyl-3-methyl-2-(1H-pyrazol-4-yl)piperazin-1-yl)pyrimidin-2-yl)imidazo[1,2-a]pyrazine]",Ki,GCN2 kinase; [2],100 to 1000 nM
same,IC50,[1]; [3],500 to 5000 nM
"CS(=O)(=O)NCC1(F)CCCN(c2cc(-c3cnc4ccc(C(F)F)nn34)ccn2)C1 (centres unmarked) [II-139, N-((1-(4-(6-(Difluoromethyl)imidazo[1,2-b]pyridazin-3-yl)pyridin-2-yl)-3-fluoropiperidin-3-yl)methyl)methanesulfonamide]",Ki,GCN2 kinase; [4],10 to 1000 nM
same,IC50,[1]; [5],500 to 5000 nM
"COCCNc1cc(-c2cnc3ccc(C(F)F)nn23)cc(N2CCCC(CNS(C)(=O)=O)C2)n1 (centres unmarked) [II-89, N-((1-(4-(6-(Difluoromethyl)imidazo[1,2-b]pyridazin-3-yl)-6-((2-methoxyethyl)amino)pyridin-2-yl)piperidin-3-yl)methyl)methanesulfonamide]",Ki,GCN2 kinase; [4],< 10 nM
same,IC50,[1]; [5],500 to 5000 nM
"CC(=O)N1CCN(c2cccc(-c3cnc4cnccn34)n2)CC1 [IV-2, 1-(4-(6-(Imidazo[1,2-a]pyrazin-3-yl)pyridin-2-yl)piperazin-1-yl)ethan-1-one]",Ki,GCN2 kinase; [2],100 to 1000 nM
same,IC50,[1]; [3],> 5000 nM
"CS(=O)(=O)CCC1CCCN(c2cc(-c3cnc4ccc(C(F)F)nn34)ncn2)C1 (centres unmarked) [II-493, 6-(Difluoromethyl)-3-(6-(3-(2-(methylsulfonyl)ethyl)piperidin-1-yl)pyrimidin-4-yl)imidazo[1,2-b]pyridazine]",Ki,GCN2 kinase; [4],10 to 1000 nM
same,IC50,[1]; [5],500 to 5000 nM
"FC(F)c1cn2c(-c3nccc(N4CCC(c5cccnc5)C4)n3)cnc2cn1 (centres unmarked) [IV-76, 6-(Difluoromethyl)-3-(4-(3-(pyridin-3-yl)pyrrolidin-1-yl)pyrimidin-2-yl)imidazo[1,2-a]pyrazine]",Ki,GCN2 kinase; [2],100 to 1000 nM
same,IC50,[1]; [3],> 5000 nM
"CS(=O)(=O)NCC1CCCN(c2cc(-c3cnc4ccc(C(F)F)nn34)cc(N3CC4(CCN4)C3)n2)C1 (centres unmarked) [II-67, N-((1-(4-(6-(Difluoromethyl)imidazo[1,2-b]pyridazin-3-yl)-6-(1,6-diazaspiro[3.3]heptan-6-yl)pyridin-2-yl)piperidin-3-yl)methyl)methanesulfonamide]",Ki,GCN2 kinase; [4],< 10 nM
same,IC50,[1]; [5],< 500 nM
"CC1CC(CS(C)(=N)=O)C(C)N(c2ccnc(-c3cnc4sc(C(F)(F)F)cn34)n2)C1 (centres unmarked) [Compound V-16, ((2,5-Dimethyl-1-(2-(2-(trifluoromethyl)imidazo[2,1-b]thiazol-5-yl)pyrimidin-4-yl)piperidin-3-yl)methyl)(imino)(methyl)-λ^6-sulfanone]",Ki,"GCN2 kinase; compounds of Formula V, 4 nM GCN2 kinase",100 to 1000 nM
same,IC50,"[1]; compounds of Formula V, U2OS cells, 10 μM borrelidin, 1 h, read-out: GCN2 Biomarker (IC50)",> 5000 nM
"FC(F)c1ccc2ncc(-c3cc(C4CCOCC4)ncn3)n2n1 [II-358, 6-(Difluoromethyl)-3-(6-tetrahydropyran-4-ylpyrimidin-4-yl)imidazo[1,2-b]pyridazine]",Ki,GCN2 kinase; [4],10 to 1000 nM
same,IC50,[1]; [5],> 5000 nM
"CC1C(CNS(C)(=O)=O)N(C)CCN1c1cc(-c2cnc3ccc(C(F)F)nn23)ncn1 (single isomer, unassigned) [II-364, N-((4-(6-(6-(difluoromethyl)imidazo[1,2-b]pyridazin-3-yl)pyrimidin-4-yl)-1,3-dimethylpiperazin-2-yl)methyl)methanesulfonamide]",Ki,GCN2 kinase; [4],< 10 nM
same,IC50,[1]; [5],< 500 nM
